assay: logP by HPLC on reversed-phase column (EEC Directive 79/831 Annex V.A8); details: HPLC on a reversed-phase column (C 18), EEC Directive 79/831 Annex V.A8

| logP | Structure (SMILES) |
| --- | --- |
| 3.35 | Cn1nc(C(F)F)c(C(=O)Nc2cccc(OCc3ccccc3)c2)c1F [compound 252] |
| 4.34 | Cn1nc(C(F)F)c(C(=O)Nc2cccc(-c3ccc(OC(F)(F)F)cc3)c2)c1Cl [compound 244] |
| 4.72 | Cn1nc(C(F)F)c(C(=O)Nc2ccc(-c3cc(Cl)cc(Cl)c3)cc2)c1Cl [compound 267] |
| 2.70 | Cn1nc(C(F)F)c(C(=O)Nc2ccc(Cl)cc2)c1F [compound 261] |
| 4.44 | Cn1nc(C(F)F)c(C(=O)Nc2ccc(C3CCCCC3)cc2)c1Cl [compound 263] |
| 3.33 | Cn1nc(C(F)F)c(C(=O)Nc2ccc(-c3ccccc3)cc2)c1F [compound 264] |
| 3.50 | Cn1nc(C(F)F)c(C(=O)Nc2ccc(-c3ccccc3)cc2)c1Cl [compound 265] |
| 3.56 | Cn1nc(C(F)F)c(C(=O)Nc2cccc(Oc3ccccc3)c2)c1Cl [compound 251] |
| 3.83 | Cn1nc(C(F)F)c(C(=O)Nc2cccc(C#Cc3ccccc3)c2)c1F [compound 249] |

same assay, conditions: HPLC on reversed-phase column (C 18), EEC Directive 79/831 Annex V.A8

| logP | Structure (SMILES) |
| --- | --- |
| 4.63 | CC(C)O/N=C/c1ccc(-c2ccccc2NC(=O)c2c(C(F)F)nn(C)c2Cl)cc1 [compound 147] |
| 3.31 | Cn1nc(C(F)F)c(C(=O)Nc2ccccc2OC(F)(F)C(F)F)c1Cl [compound 30] |
| 3.73 | Cn1nc(C(F)F)c(C(=O)Nc2cccc(Cl)c2SCC(F)(F)F)c1F [compound 39] |
| 3.83 | Cn1nc(C(F)F)c(C(=O)Nc2ccccc2-c2cccc(OC(F)(F)F)c2)c1F [compound 142] |
| 3.23 | CC1CCCC(c2ccccc2NC(=O)c2c(C(F)F)nn(C)c2F)C1 (stereo not drawn) [compound 52] |
| 3.11 | Cn1nc(C(F)F)c(C(=O)Nc2ccc3c(c2)OC(F)(F)O3)c1Cl [compound 198] |
| 4.29 | Cc1ccccc1Oc1ccccc1NC(=O)c1c(C(F)F)nn(C)c1Cl [compound 161] |
| 3.96 | Cn1nc(C(F)F)c(C(=O)Nc2cccc(OCC(C)(C)C)c2)c1F [compound 182] |
| 4.83 | Cn1nc(C(F)F)c(C(=O)Nc2ccccc2-c2cccc([Si](C)(C)C)c2)c1F [compound 133] |
| 3.13 | Cn1nc(C(F)F)c(C(=O)Nc2ccccc2Br)c1Cl [compound 44] |
| 3.53 | Cn1nc(C(F)F)c(C(=O)Nc2cccc(Cl)c2SCC(F)F)c1F [compound 33] |
| 4.34 | Cc1cc(C)cc(-c2cccc(NC(=O)c3c(C(F)F)nn(C)c3Cl)c2)c1 [compound 206] |
| 5.39 | Cn1nc(C(F)F)c(C(=O)Nc2ccccc2-c2ccc([Si](C)(C)C)cc2)c1Cl [compound 136] |
| 4.29 | Cc1ccc(CCC(C)(C)C)c(NC(=O)c2c(C(F)F)nn(C)c2F)c1 [compound 17] |
| 4.01 | Cn1nc(C(F)F)c(C(=O)Nc2ccccc2-c2cc(Cl)cc(Cl)c2)c1F [compound 127] |
| 2.54 | CCOc1ccc(NC(=O)c2c(C(F)F)nn(C)c2F)cc1OCC [compound 167] |
| 4.06 | Cc1cccc(NC(=O)c2c(C(F)F)nn(C)c2F)c1CCC(C)(C)C [compound 16] |
| 3.55 | Cn1nc(C(F)F)c(C(=O)Nc2ccccc2-c2cc(F)cc(F)c2)c1Cl [compound 92] |
| 4.96 | Cn1nc(C(F)F)c(C(=O)Nc2cccc(-c3cccc([Si](C)(C)C)c3)c2)c1F [compound 237] |
| 4.31 | Cn1nc(C(F)F)c(C(=O)Nc2cccc(-c3cccc(OC(F)(F)F)c3)c2)c1Cl [compound 241] |
| 3.96 | Cc1ccccc1Oc1ccccc1NC(=O)c1c(C(F)F)nn(C)c1F [compound 160] |
| 3.41 | CC(C)Oc1cccc(NC(=S)c2c(C(F)F)nn(C)c2Cl)c1 [Example 171] |
| 4.73 | Cn1nc(C(F)F)c(C(=O)Nc2ccccc2-c2ccc(C(C)(C)C)cc2)c1F [compound 109] |

| logP | Structure (SMILES) |
| --- | --- |
| 4.36 | CC(C)Oc1cccc(-c2ccccc2NC(=O)c2c(C(F)F)nn(C)c2Cl)c1 [compound 112] |
| 3.04 | Cn1nc(C(F)F)c(C(=O)Nc2cccc(Br)c2)c1Cl [compound 190] |
| 4.68 | CC(C)Oc1cc(NC(=O)c2c(C(F)F)nn(C)c2Cl)c(Cl)cc1Cl [compound 173] |
| 2.15 | COCCOc1cccc(NC(=O)c2c(C(F)F)nn(C)c2F)c1 [compound 180] |
| 4.41 | CC(C)Oc1cc(NC(=O)c2c(C(F)F)nn(C)c2F)c(Cl)cc1Cl [compound 172] |
| 3.85 | Cc1cccc(CCC(C)(C)C)c1NC(=O)c1c(C(F)F)nn(C)c1F [compound 15] |
| 5.17 | Cn1nc(C(F)F)c(C(=O)Nc2cccc(-c3cccc([Si](C)(C)C)c3)c2)c1Cl [compound 238] |
| 4.31 | CC(C)O/N=C/c1ccc(-c2ccccc2NC(=O)c2c(C(F)F)nn(C)c2F)cc1 [compound 146] |
| 4.14 | Cn1nc(C(F)F)c(C(=O)Nc2cccc(-c3ccc(OC(F)(F)F)cc3)c2)c1F [compound 243] |
| 2.71 | C#CCOc1ccccc1NC(=O)c1c(C(F)F)nn(C)c1F [compound 26] |
| 4.86 | CC(C)c1ccc(-c2ccccc2NC(=O)c2c(C(F)F)nn(C)c2Cl)cc1 [compound 97] |
| 3.13 | CCOCCOc1cc(NC(=O)c2c(C(F)F)nn(C)c2Cl)ccc1C [compound 184] |
| 3.20 | CC(C)=CCc1ccccc1NC(=O)c1c(C(F)F)nn(C)c1F [compound 6] |
| 5.25 | Cn1nc(C(F)F)c(C(=O)Nc2cccc(-c3ccc([Si](C)(C)C)cc3)c2)c1Cl [compound 240] |
| 3.99 | CC(C)Oc1cccc(-c2cccc(NC(=O)c3c(C(F)F)nn(C)c3F)c2)c1 [compound 221] |
| 2.82 | Cn1nc(C(F)F)c(C(=O)Nc2cccc(Br)c2)c1F [compound 189] |
| 3.29 | Cn1nc(C(F)F)c(C(=O)Nc2ccccc2SCC(F)(F)F)c1F [compound 37] |
| 3.63 | Cc1ccccc1-c1cccc(NC(=O)c2c(C(F)F)nn(C)c2F)c1 [compound 201] |
| 4.30 | CC(C)c1cccc(-c2ccccc2NC(=O)c2c(C(F)F)nn(C)c2F)c1 [compound 93] |
| 4.73 | Cn1nc(C(F)F)c(C(=O)Nc2cccc(-c3cc(Cl)cc(Cl)c3)c2)c1Cl [compound 232] |
| 4.31 | Cn1nc(C(F)F)c(C(=O)Nc2ccccc2-c2cc(Cl)cc(Cl)c2)c1Cl [compound 128] |
| 4.93 | Cn1nc(C(F)F)c(C(=O)Nc2cccc(-c3ccc(C(C)(C)C)cc3)c2)c1Cl [compound 220] |
| 3.85 | Cn1nc(C(F)F)c(C(=O)Nc2ccccc2-c2ccc(F)c(Cl)c2)c1Cl [compound 103] |

| logP | Structure (SMILES) |
| --- | --- |
| 3.33 | Cn1nc(C(F)F)c(C(=O)Nc2cc(F)ccc2SCC(F)F)c1F [compound 34] |
| 2.82 | Cn1nc(C(F)F)c(C(=O)Nc2ccccc2Br)c1F [compound 43] |
| 4.19 | CC(C)Oc1ccc(-c2cccc(NC(=O)c3c(C(F)F)nn(C)c3Cl)c2)cc1 [compound 224] |
| 2.88 | Cn1nc(C(F)F)c(C(=O)Nc2cccc(OCC(F)(F)F)c2)c1F [compound 186] |
| 3.58 | Cn1nc(C(F)F)c(C(=O)Nc2ccc3c(c2)OC(F)(F)C(F)(F)O3)c1F [compound 199] |
| 3.39 | Cn1nc(C(F)F)c(C(=O)Nc2cccc(-c3ccc(F)cc3)c2)c1F [compound 203] |
| 4.19 | Cn1nc(C(F)F)c(C(=O)Nc2cccc(OCC(C)(C)C)c2)c1Cl [compound 183] |
| 2.96 | CCOCCOc1cc(NC(=O)c2c(C(F)F)nn(C)c2F)ccc1C [compound 185] |
| 3.06 | Cn1nc(C(F)F)c(C(=O)Nc2cccc(OCC(F)(F)F)c2)c1Cl [compound 187] |
| 4.76 | CC(C)c1cccc(-c2ccccc2NC(=O)c2c(C(F)F)nn(C)c2Cl)c1 [compound 95] |
| 4.61 | CC(C)COc1ccc(-c2cccc(NC(=O)c3c(C(F)F)nn(C)c3F)c2)cc1 [compound 235] |
| 2.77 | Cn1nc(C(F)F)c(C(=O)Nc2cccc3c2OC(F)(F)O3)c1F [compound 62] |
| 4.21 | Cn1nc(C(F)F)c(C(=O)Nc2cccc(-c3cccc(Cl)c3Cl)c2)c1Cl [compound 228] |
| 3.35 | CC(C)=CCc1ccccc1NC(=O)c1c(C(F)F)nn(C)c1Cl [compound 5] |
| 4.73 | Cn1nc(C(F)F)c(C(=O)Nc2cccc(-c3ccc(C(C)(C)C)cc3)c2)c1F [compound 219] |
| 5.03 | Cn1nc(C(F)F)c(C(=O)Nc2cccc(-c3ccc([Si](C)(C)C)cc3)c2)c1F [compound 239] |
| 3.59 | Cn1nc(C(F)F)c(C(=O)Nc2cccc(-c3ccc(F)cc3)c2)c1Cl [compound 204] |
| 4.11 | Cn1nc(C(F)F)c(C(=O)Nc2ccccc2-c2cccc(OC(F)(F)F)c2)c1Cl [compound 143] |
| 4.46 | CC(C)c1ccc(-c2cccc(NC(=O)c3c(C(F)F)nn(C)c3F)c2)cc1 [compound 215] |
| 3.85 | CCC(C)Oc1cc(NC(=O)c2c(C(F)F)nn(C)c2F)ccc1C (stereo not drawn) [compound 179] |
| 4.61 | CC(C)c1cccc(-c2cccc(NC(=O)c3c(C(F)F)nn(C)c3Cl)c2)c1 [compound 213] |
| 3.33 | C=C(C)COc1cccc(NC(=O)c2c(C(F)F)nn(C)c2Cl)c1 [compound 177] |
| 4.39 | Cn1nc(C(F)F)c(C(=O)Nc2cccc(-c3cc(Cl)cc(Cl)c3)c2)c1F [compound 231] |

| Structure (SMILES) | logP |
| --- | --- |
| Cn1nc(C(F)F)c(C(=O)Nc2cccc3c2OCCO3)c1F [compound 59] | 2.44 |
| Cn1nc(C(F)F)c(C(=O)Nc2ccc3c(c2)OCO3)c1F [compound 194] | 2.05 |
| Cn1nc(C(F)F)c(C(=O)Nc2cccc3c2CCCC3)c1F [compound 56] | 3.08 |
| CC(C)CCc1cc(F)ccc1NC(=O)c1c(C(F)F)nn(C)c1F [Example 10] | 3.67 |
| Cn1nc(C(F)F)c(C(=O)Nc2ccc3c(c2)OCO3)c1Cl [compound 195] | 2.20 |

same assay, conditions: reversed-phase HPLC column (C 18)

| chromatographic logP | Structure (SMILES) |
| --- | --- |
| 3.52 | Nc1ccc(F)cc1-c1ccc(C(F)(F)F)cc1 [5-fluoro-4′-(trifluoromethyl)biphenyl-2-amine] |

— patent publication US9375004B2 (Bayer Intellectual Property GmbH, priority 2010, dated 2016)
